What was measured:
[1] = test system: primary RPE cells; experiment: Example 27: proliferation of primary RPE cells with TR-1; type: cell-based, Human; conditions: five days of treatment
Experimental: Human primary RPE cells are obtained and cultured according to standard methods. The cultured cells are divided into four groups and treated as follows. Group 1 receives vehicle alone (ethanol). Group 2 is treated with 13-cis retinoic acid at concentrations ranging from 10^−11 to 10^−6 M. Group 3 is treated with the thyroid hormone inverse agonist TR-1 at concentrations ranging from 10^−11 to […]. Group 4 is co-treated with 13-cis retinoic acid at concentrations ranging from 10^−11 to 10^−6 M TR-1. Cells are refed with fresh growth medium and re-treated with the appropriate compound every two days for a total of five days of treatment. The proliferation rate over the duration of the experiment is quantitated via measurement of the cell number in the cultures using an electric cell counter.

[2] = test system: retinal pigment epithelium (RPE) cells; experiment: Example 19: proliferation of primary retinal pigment epithelium cultures; type: cell-based, human; conditions: for RPE cell growth: single agent, 10^−12 to 10^−6M (FIG. 18)
Experimental: Primary cultures of human retinal pigment epithelium (RPE) were established according to the method described by Campochiaro et al. in Invest. Opthal & Vis. Sci. 32:65 (1991). 5×10^4 cells were plated in 16-mm wells of 24-well multiwell plates in DMEM (Gibco) containing 5% FBS. […] Cells were fed with fresh media containing the appropriate concentrations of these compounds every two days for a total of five days of treatment. Cells were removed from the plates by gentle digestion with trypsin and the number of cells was counted with an electronic cell counter.
AGN 193109 was tested for its ability to potentiate the anti-proliferative effect of 13-cis retinoic acid (13-cis RA) in primary RPE cultures using conditions and techniques to measure RPE cell proliferation described above. […] More particularly, 13-cis RA is useful in the treatment of several disease states, including acne (Peck et al. N. Engl. J. Med. 300:329 (1977); Jones et al. Br. J. Dermatol. 108:333 (1980)), and squamous cell carcinoma of the skin and cervix in combination treatment with interferon 2α (Lippman et al. J. Natl. Cancer Inst. 84:241 (1992); Moore et al. Seminars in Hematology 31:31 (1994)).
We next tested the ability of AGN 193109 to potentiate the activities of other nuclear receptor hormones in primary RPE cell cultures. Dexamethasone, a synthetic glucocorticoid receptor agonist, is one member of a class of compounds that have been used clinically for their potent anti-inflammatory and immunosuppressive properties. Thyroid hormone (T3; […]) is a natural thyroid hormone receptor agonist used primarily for hormone replacement therapy in the treatment of hypothyroidism.

[3] = test system: patients having retinal detachment resulting from PVR; conditions: 40 mg oral 13-cis retinoic acid twice daily for four weeks
[4] = test system: rabbits; experiment: Example 24: rabbit model of proliferative vitreoretinopathy (PVR); type: in vivo
[5] = test system: cultured cervical carcinoma cells; experiment: Example 23: cultured cervical carcinoma cells from a patient biopsy; type: cell-based; conditions: 10^−10 to 10^−6 M
Description: A patient presenting with an advanced cervical carcinoma is first identified. A cervical biopsy is obtained according to methods that will be familiar to one having ordinary skill in the art. Cells from the explanted tumor are propagated in tissue culture according to standard techniques to provide cell numbers sufficient to allow division into three sample groups. Culture conditions described by Agarwal et al. in Cancer Res. 54:2108 (1994) are employed for this purpose. The first group is reserved as a control and receives vehicle alone (ethanol). The second group is treated with the RAR agonist retinoic acid at a concentration of from 10^−10 to 10^−6 M. The third group is treated with AGN 193109 at doses ranging from 10^−10 to 10^−6 M. Cells are fed with fresh growth medium daily and are provided with the retinoids described above as appropriate for each sample group. Cells are counted after three days using an electric cell counter.

[6] = test system: RAR-γ-VP-16 with ER-RXR-α; conditions: no other retinoid added, 18 hours
[7] = test system: ER-RAR-α; experiment: Example 10: repression of basal gene activity, ERE-tk-Luc, CV-1 cells; type: cell-based; conditions: 10^−9 to 10^−6 M, 18 hours, single agent
Description: (§1) More specifically, these procedures employed the ER-RAR chimeric receptor and ERE-tk-Luc reporter system. The ERE-tk-Luc plasmid includes the region −397 to −87 of the estrogen responsive 5′-flanking region of the Xenopus vitellogenin A2 gene, described by Klein-Hitpass, et al. in Cell 46:1053-1061 (1986), ligated upstream of the HSV thymidine kinase promoter and luciferase reporter gene of plasmid tk-Luc. The ER-RAR chimeric receptors consisted of the estrogen receptor DNA binding domain fused to the “D-E-F” domain of the RARs. Those having ordinary skill in the art appreciate this “D-E-F” domain functions to bind retinoid, to provide a retinoid inducible transactivation function and to provide a contact site for heterodimerization with RXR. Thus, luciferase expression in this reporter system was dependent on activation of the transfected chimeric receptor construct.
(§2) CV-1 cells were co-transfected with the ERE-tk-Luc reporter plasmid and either ER-RAR-α, ER-RAR-β or ER-RAR-γ expression plasmids. The ERE-tk-Luc plasmid contained the estrogen-responsive promoter element of the Xenopus laevis vitellogenin A2 gene and was substantially identical to the reporter plasmid described by Klein-Hitpass et al. in Cell 46:1053 (1986), except that the CAT reporter gene was substituted by a polynucleotide sequence encoding luciferase. The ER-RAR-α, ER-RARβ and ER-RAR-γ chimeric receptor-encoding polynucleotides employed in the co-transfection have been described by Graupner et al. in Biochem. Biophys. Res. Comm. 179:1554 (1991). […] Calcium phosphate transfections were carried out exactly as described in Example 6 using 0.5 μg/well of reporter plasmid and either 0.05 μg, 0.10 μg or 0.2 μg/well of receptor plasmid. […] Cell lysates and luciferase activity measurements were performed as described in Example 6.

[8] = test system: ER-RAR-γ; experiment: as above; type: cell-based; conditions: 10^−9 to 10^−6 M, 18 hours, single agent
Description: as §1, §2

[9] = test system: ER-RAR-β; experiment: as above; type: cell-based; conditions: 10^−9 to 10^−6 M, 18 hours, single agent
Description: as §1, §2

[10] = target: T1, RARα (Homo sapiens, UniProt P10276); experiment: Example 8: protease protection analysis; type: biochemical; design: host or cells: TNT-coupled reticulocyte lysate in vitro transcription-translation; conditions: ATRA and AGN 193109 100 nM, AGN 193583 1000 nM; trypsin 25, 50 or 100 μg/ml, 10 minutes
T1 sequence (P10276 1-462): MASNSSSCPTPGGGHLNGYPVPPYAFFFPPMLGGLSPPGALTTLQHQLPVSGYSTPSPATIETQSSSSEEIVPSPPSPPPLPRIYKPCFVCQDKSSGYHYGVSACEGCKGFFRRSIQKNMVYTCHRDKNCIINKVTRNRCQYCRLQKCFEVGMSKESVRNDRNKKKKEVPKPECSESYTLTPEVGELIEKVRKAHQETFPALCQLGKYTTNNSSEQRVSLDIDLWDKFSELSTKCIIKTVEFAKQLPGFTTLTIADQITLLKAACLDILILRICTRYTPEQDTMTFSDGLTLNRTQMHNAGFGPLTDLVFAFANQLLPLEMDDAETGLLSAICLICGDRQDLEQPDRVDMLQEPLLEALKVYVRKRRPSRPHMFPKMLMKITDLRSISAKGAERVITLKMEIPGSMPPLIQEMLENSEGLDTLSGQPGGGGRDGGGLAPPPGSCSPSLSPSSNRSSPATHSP
Experimental: A plasmid constructed in the vector pGEM3Z (Pharmacia) and containing the RAR-α cDNA (Giguere et al. Nature 330:624 (1987)), was used in connection with the TNT-coupled reticulocyte lysate in vitro transcription-translation system (Promega) to prepare [^35S]-methionine labeled RAR-α. Limited proteolytic digestion of the labeled protein RAR-α was carried out according to the method described by Keidel et al. in Mol. Cell. Biol. 14:287 (1994). […] After ligand binding, 1 μl of appropriately concentrated trypsin was added to the mixture to give final concentrations of 25, 50 or 100 μg/ml. Samples were incubated at room temperature for 10 minutes and trypsin digestion stopped by addition of SDS-sample buffer. Samples were subjected to polyacrylamide gel electrophoresis and autoradiographed according to standard procedures.

[11] = test system: T3R-VP-16; experiment: Example 26: thyroid hormone receptor negative hormone assay, CV-1 cells; type: cell-based; conditions: CV-1 cells with ERE-tk-Luc, ER-RXRα and T3R-VP-16
Description: CV-1 cells are co-transfected with the luciferase reporter plasmid ERE-tk-Luc and the plasmids ER-RXR-α and T3R-VP-16. T3R-VP-16 is identical to the plasmid RAR-γ-VP-16, except the RAR-γ moiety of RAR-γ-VP-16 has been substituted by the thyroid hormone receptor cDNA. As such, T3R-VP-16 expresses a fusion protein containing the activation domain of HSV VP-16 in frame with the N-terminus of the thyroid hormone receptor. Standard transfection and cell culture methods are employed for this purpose. After transfection, cells are rinsed and fed with growth medium containing 10% fetal calf serum which has been extracted with activated charcoal. Cells are treated with vehicle alone (ethanol), thyroid hormone (10^−9 to 10^−10 M), or compound TR-1 (10^−9 to 10^−6 M). […] Further, TR-1 is capable of antagonizing thyroid hormone mediated transactivation and as such is a thyroid receptor antagonist.

| SMILES | cellular proliferation, single agent [1] | effectiveness compared with ATRA ([2]; 13-cis RA 10^−12 to 10^−6M) | RPE cell growth [2] | incidence of retinal redetachment [3] | frequency and severity of tractional retinal detachment ([4]; retinoic acid 100 μg intravitreal, single agent) | cell number after three days [5] | luciferase activity of triple transfectants [6] | RPE cell proliferation ([2]; single-agent treatment (FIG. 19): dexamethasone 10^−11 to 10^−6M, ATRA 10^−12 to 10^−6M) | luciferase reporter activity [7] | luciferase reporter activity [8] | luciferase reporter activity [9] | pattern of trypsin sensitivity of labeled RAR-α after prebinding [10] | retinal detachment compared with control rabbits ([4]; second study, single agent 100 μg intravitreal) | RPE cell proliferation ([2]; thyroid hormone alone, 10^−11 to 10^−6M) | luciferase activity [11] |
| --- | --- | --- | --- | --- | --- | --- | --- | --- | --- | --- | --- | --- | --- | --- | --- |
| CC1=C(/C=C/C(C)=C/C=C/C(C)=C\C(=O)O)C(C)(C)CCC1 [13-cis RA, 13-cis retinoic acid, reference compound] | dose dependent decrease in cell number | approximately two orders of magnitude less effective | effectively inhibited RPE cell growth | significantly reduced incidence of retinal redetachment | – | – | – | – | – | – | – | – | – | – | – |
| CC1=C(/C=C/C(C)=C/C=C/C(C)=C/C(=O)O)C(C)(C)CCC1 [ATRA, all-trans-retinoic acid, reference compound] | – | – | effectively inhibited RPE cell growth | – | significantly reduced frequency and severity of retinal detachment | does not substantially inhibit the growth rate | modest increase of luciferase activity over the high basal level | substantially unable to inhibit RPE cell proliferation | strongly induced luciferase expression | strongly induced luciferase expression | strongly induced luciferase expression | two major protease resistant species | – | – | – |
| N[C@@H](Cc1cc(I)c(Oc2ccc(O)c(I)c2)c(I)c1)C(=O)O [thyroid hormone, 3,3′,5-triiodothyronine, reference compound] | – | – | – | – | – | – | – | – | – | – | – | – | does not inhibit retinal detachment | refractory to single-agent treatment | slight increase of luciferase activity in a dose dependent manner |
